Data reported in patent US4190672A, “Method and compositions of treating Parkinsonisms with levodopa and 3',4'-dihydroxy-2-methylisopropiophenone” (priority 1978, dated 1980).
Like-named read-outs stand apart in the source and are kept apart here.

Assays:
[1] = system: COMT; test: Effect of DHMPP with time on plasma and brain levodopa, OMD and dopamine after levodopa administration; format: in vivo, Male Sprague-Dawley rats
Method: (§1) Male Sprague-Dawley rats weighing 200-300 g are fasted for 17 hours prior to the experiments. They are kept for at least two days on a day-light, night-dark cycle, and the experiments are conducted between 0900 and 1400 hours on the day following the fast. All injections are given intraperitoneally, and all drugs are given as a suspension in 1% methyl ceullulose. 1. Effect of DHMPP with time: Absolute control rats receive no injections. Levodopa controls are given levodopa, 250 mg/kg. […] Blood and brain are collected. […] Analytical procedures: […] The supernatants are collected and the above procedure is repeated on the residue. The combined supernatants are stored at -20° C. Blood samples are collected in heparinized tubes immediately after decapitation, chilled, and centrifuged, and the plasma is pipetted off. Plasma proteins are precipitated in 4 volumes ice-cold 0.4 M perchloric acid solution and centrifuged at 10,000 rpm for 15 min. Protein-free supernatants are decanted and stored at -20° C. […] Am. Soc. Neurochem. 4:105 (1973) Homovanillic acid (HVA) remains in the combined effluent and subsequent water wash; these eluates undergo solvent extractions and are assayed by the automated method of […]., et al., Biochem. […] Levodopa and OMD are eluted together and assayed according to the method of Fahn, S., et al., Anal. Biochem. 46:557 (1972). After dopamine is eluted, it is measured by the automated method of […]., Brit. J. Pharmacol. All eluates are assayed within 10 days of chromatography; they are stored at -20° C., thawed and mixed thoroughly before assay.

[2] = Behavioral responses and deaths in rats; format: in vivo, Male Sprague-Dawley rats
Method: (§2) Male Sprague-Dawley rats weighing 200-300 g are fasted for 17 hours prior to the experiments. They are kept for at least two days on a day-light, night-dark cycle, and the experiments are conducted between 0900 and 1400 hours on the day following the fast. All injections are given intraperitoneally, and all drugs are given as a suspension in 1% methyl ceullulose.
1. Effect of DHMPP with time: Absolute control rats receive no injections. Levodopa controls are given levodopa, 250 mg/kg. Experimental animals are pretreated with DHMPP, 250 mg/kg, 30 min before receiving a combined injection of DHMPP and levodopa, each 250 mg/kg. Animals are decapitated at 30 min time intervals between 0 and 120 min after levodopa administration. Blood and brain are collected.
(§3) 2. Effect of dose of DHMPP: Absolute and levodopa control rats receive the same treatment as described above. Experimental rats were pretreated with DHMPP (50, 100, 150, 200 or 250 mg/kg) 30 min before receiving the injection of levodopa, 250 mg/kg. All animals are decapitated 90 min after receiving levodopa. Blood and brain are collected.

[3] = system: COMT; test: Effect of dose of DHMPP on plasma and brain OMD, levodopa and dopamine after levodopa treatment; format: in vivo, Male Sprague-Dawley rats
Method: as §2, §3
3. Analytical procedures: Brains are chilled on ice, homogenized in 3 volumes ice-cold 0.4 M perchloric acid containing 0.025% ascorbic acid, and centrifuged at 15,000 rpm for 20 min. The supernatants are collected and the above procedure is repeated on the residue. The combined supernatants are stored at -20° C. Blood samples are collected in heparinized tubes immediately after decapitation, chilled, and centrifuged, and the plasma is pipetted off. Plasma proteins are precipitated in 4 volumes ice-cold 0.4 M perchloric acid solution and centrifuged at 10,000 rpm for 15 min. Protein-free supernatants are decanted and stored at -20° C. All samples are chromatographed within two days of the experiment.
Column chromatography of the sample extracts is carried out on a strong cation resin (Bio Rad AG 50-X8) according to the method of Prased, A. L. N., et al., Trans. Am. Soc. Neurochem. 4:105 (1973) Homovanillic acid (HVA) remains in the combined effluent and subsequent water wash; these eluates undergo solvent extractions and are assayed by the automated method of Prasad, A. L. N., et al., Biochem. Med. 9:136 (1974). Levodopa and OMD are eluted together and assayed according to the method of Fahn, S., et al., Anal. Biochem. 46:557 (1972). After dopamine is eluted, it is measured by the automated method of Atack, C. V., Brit. J. Pharmacol. All eluates are assayed within 10 days of chromatography; they are stored at -20° C., thawed and mixed thoroughly before assay.

[4] = crystalline solid; cited from earlier work
[5] = system: catechol-O-methyl transferase (COMT); conditions: cited from earlier work
[6] = Effect of DHMPP with time on plasma and brain levodopa, OMD and dopamine after levodopa administration; format: in vivo, Male Sprague-Dawley rats; conditions: rat, ip, 250 mg/kg
Method: as §1

[7] = DHMPP 250 mg/kg pretreatment plus DHMPP and levodopa 250 mg/kg each, i.p.
[8] = all doses of DHMPP, 90 min after levodopa

## CC(C)C(=O)c1ccc(O)c(O)c1 [DHMPP, 3',4'-Dihydroxy-2-methyl-propiophenone]
[1]; [7]
  increase in plasma levodopa levels on inhibition of COMT: three-fold
  prevention of measurable accumulation of OMD in plasma: completely prevents measurable accumulation of OMD in plasma
[1]; DHMPP plus levodopa i.p., 30 min time point
  increase in brain levodopa concentration with COMT inhibition: more than two-fold
[1]; DHMPP plus levodopa i.p., at 60 min
  increase in brain dopamine level on inhibition of COMT: more than two-fold
[1]; DHMPP plus levodopa, i.p.
  accumulation of brain OMD on DHMPP treatment: blocked
[1]; animals treated with DHMPP and levodopa
  levodopa and dopamine concentrations in brain (conclusion): striking enhancement and prolongation of levodopa and dopamine concentrations in the brain
[1]; high dosage, acute levodopa administration
  accumulation of 3-O-methylated derivatives of catechols in plasma and brain (conclusion): does inhibit the accumulation of 3-O-methylated derivatives of catechols in plasma and brain
[2]; DHMPP 50-250 mg/kg i.p.
  degree of lethargy versus dosage of DHMPP: related to the dosage of DHMPP employed
[2]; DHMPP i.p., within 10 min of injection
  motor activity and behavioral responses to DHMPP: striking reduction in motor activity within 10 min of injection, including prostration, lying on one side, rapid breathing and loss of responsiveness to handling and other stimuli
[2]; DHMPP plus levodopa, i.p.
  piloerection in animals receiving both inhibitor and levodopa: Little piloerection is apparent
[2]; rat, in vivo
  deaths at lower doses: Deaths do not occur
[2]; rat, in vivo, ip, 250 mg/kg
  deaths, dose-response experiment: two of six
[3]; DHMPP 100 mg/kg i.p., 90 min after levodopa
  inhibition of OMD accumulation in plasma relative to levodopa controls: completely inhibits
[3]; DHMPP 100 mg/kg or greater i.p., 90 min after levodopa
  plasma OMD accumulation: completely blocked
[3]; DHMPP 50-250 mg/kg i.p., 90 min after levodopa 250 mg/kg
  plasma levodopa levels: not affected
[3]; DHMPP 100 and 200 mg/kg i.p., 90 min after levodopa
  accumulation of OMD in brain: inhibited
[3]; Rattus norvegicus, ip, 1.5 h, DHMPP 100 mg/kg i.p., 90 min after levodopa, read-out: inhibition of OMD accumulation in brain relative to levodopa controls
  inhibition at 100 mg/kg: 80%
[3]; [8]
  dopamine levels in brain: not significantly altered
  levodopa levels in brain: not significantly altered
[4]
  water solubility: water-soluble
[5]
  inhibition of COMT (literature): inhibition of the enzyme catechol-O-methyl transferase (COMT)

## N[C@@H](Cc1ccc(O)c(O)c1)C(=O)O [levodopa, 3-(3,4-dihydroxyphenyl)-L-alanine]
[6]; in vivo, time of peak levodopa in brain
  Tmax: 30 min
[6]; plasma, DHMPP plus levodopa i.p., after levodopa administration, read-out: time of peak plasma levodopa level with inhibition of COMT (converted)
  Tmax: 90 min
[6]; plasma, levodopa 250 mg/kg i.p., alone or with DHMPP, after levodopa injection, read-out: time of maximal plasma levels of levodopa (converted)
  Tmax: 30 min
[1]; levodopa 250 mg/kg i.p.
  OMD accumulation in plasma after levodopa administration: progressively accumulates in plasma
[1]; rat, in vivo
  time course of brain OMD levels: rise slowly for the first 30 min in levodopa and absolute control animals and then increase more rapidly and linearly
  time of maximal dopamine concentration in brain: 30 to 60 min
[1]; rat, in vivo, 240 min
  brain OMD level: 18 nmol/g
[2]; levodopa 250 mg/kg i.p. after DHMPP
  effect of levodopa on lethargic symptoms induced by DHMPP: markedly attenuates all lethargic symptoms induced by DHMPP, but does not abolish them
[2]; levodopa 250 mg/kg i.p., all rats treated with levodopa
  behavioral responses to levodopa: increased locomotor activity, erection of hair (piloerection), abnormal protrusion of the eyeball (exophthalmos) and other signs of sympathetic stimulation
